Data on twelve molecules can be found in PMC10648349, “Aromatic Diboronic Acids as Effective KPC/AmpC Inhibitors” (Molecules, 2023).

Test [1] relates to Gram-negative rods (except P. aeruginosa). Put plainly: direct antimicrobial activity, MIC. The class given is cell-based. The procedure:
(§1) Direct antimicrobial activity against Gram-negative and Gram-positive bacterial strains, as well as against yeast, was examined as previously described by the disc-diffusion test, the MIC determination assay, the MBC (for bacteria), and the MFC (for yeasts) determination tests. All the above-mentioned tests were performed according to EUCAST [71, 72] and CLSI [73, 74, 75, 76, 77] recommendations. The following reference agents were used: nitrofurantoin (for Gram-negative rods), linezolid (for Gram-positive bacteria), and fluconazole (in the case of fungi). The new aromatic diboronic acids were dissolved in DMSO (Sigma, St. Louis, MO, USA). In the disc-diffusion test, the concentration of new agents was 0.4 mg per disc.

Test [2] deals with Gram-positive strains. The experiment in a line: direct antimicrobial activity, MIC. Type of test: cell-based. The procedure: as §1, with “disc. Depending on the solubility, the MIC and MBC/MFC values were determined up to 100 mg/L for 1k, up to 200 mg/L for 7c, and up to 400 mg/L for the remaining compounds: 1a–1j, 2a–2g, 3a–3f, 4a–4b, 5a–5c, 6a and 7a–7b.” for “disc.”
The test system of test [3] is Gram-negative rods. The experiment in a line: MIC in the presence of efflux pump inhibitor PAβN. Conditions: PAβN 20 mg/L. Type of test: cell-based. The procedure: To investigate the contribution of the MDR efflux pumps to the resistance of Gram-negative rods to the newly synthesized compounds, the MIC values of studied agents, with or without the pump inhibitor, PAβN (20 mg/L) (Sigma, St. Louis, MO, USA), were evaluated. The MIC determination was performed in Mueller–Hinton II broth medium (MHB) (Becton, Dickinson and Company, Franklin Lakes, NJ, USA) using 2-fold serial dilutions of tested agents, according to the CLSI guidelines. To minimize the influence of PAβN on the destabilization of bacterial cell covers, the tests were conducted in the presence of 1 mM MgSO4 (Sigma, St. Louis, MO, USA). At least a 4-fold reduction in the MIC value after the addition of PAβN was considered significant.

Test [4] deals with KPC-3 in purified protein extract from E. coli 82 TR(pl 81) (Klebsiella pneumoniae, UniProt Q9F663, H272Y). The experiment in a line: nitrocefin hydrolysis test. The class given is biochemical. Conditions: single repetitions. The procedure: Overnight culture of E. coli 82 TR(pl 81) in MHB was diluted 1:100 into fresh MHB and incubated with shaking at 37 °C until an OD600 of 1 was attained. […] Further incubation was performed under the same conditions until an OD600 of 3 was reached. The culture with the required OD600 was centrifuged (6700× g, 10 min) and the supernatant was discarded. From the obtained bacterial cell pellet total proteins were extracted with the ReadyPreps™ Protein Preparation Kit (Epicentre Biotechnologies, Madison, WI, USA) and used in the subsequent nitrocefin hydrolysis test, performed in a 96-well microplate. Nitrocefin is a chromogenic cephalosporin substrate routinely used to detect the presence of β-lactamases. First, 20 μL of the protein extract was mixed with 80 μL of tested agents (1a, 2a, 3a and PBA as a reference BLI, each examined at concentrations: 4, 8 and 16 mg/L) or with 80 μL of the phosphate buffer (positive control—corresponding to KPC enzyme activity in the purified total proteins extracted from E. coli 82 TR(pl 81) cells). After 10 min of incubation at the room temperature 100 μL of the nitrocefin (Oxoid, Basingstoke, Hampshire, England) was added to reach its final concentration of 150 μM. β-lactamases hydrolyze the β-lactam ring of nitrocefin, causing its degradation and color change. Nitrocefin hydrolysis was evaluated after 3 min of the incubation at room temperature.
As in our previous publication the presence of β-lactamases in the purified protein extract with and without tested agents was assessed by the spectrophotometric measurement of the rates of nitrocefin hydrolysis as relative absorbance at 486 nm. The level of the measured absorbance indicated β-lactamase activity. Finally, the difference in the relative absorbance between the positive control and the sample concentration of the tested inhibitors was calculated and expressed as a percentage. A reduction in the relative absorbance level in the presence of a tested agent was taken as an indicator of the BLI activity of a used aromatic diboronic acid. The experiment was performed in triplicate.

In test [5] the test system is E. coli DH5α. The experiment in a line: whole cell assay, meropenem MIC with tested agent. Type of test: cell-based, Escherichia coli. The procedure:
(§2) To examine the ability of tested agents to inhibit various carbapenemases and AmpC-enzymes, their synergy with antibiotics against β-lactamase-producing strains was assessed by checkerboard microdilution assay, with slight modification. Checkerboards were prepared in microtiter plates, with seven two-fold dilutions of β-lactams (1–64 mg/L) in the rows and three two-fold dilutions of tested agents and PBA (4–16 mg/L) in the columns. Tested agents’ concentrations were limited to the concentrations at which the newest commercially available BLIs (vaborbactam, relebactam, and avibactam) are used in susceptibility testing. Plates were inoculated and incubated as in the MIC microdilution assay. Parallel, MICs of tested agents and PBA alone were determined by the microdilution assay. Following the incubation, antibiotic MICs in the presence of each agent’s concentration were determined. Moreover, for the first well without growth found in each checkerboard row and column along the growth/non-growth interface, the fractional inhibitory concentration index (FICI) was calculated using the formula below:FICI = [(MIC of antibiotic in combination)/(MIC of antibiotic alone)] + [(MIC of the tested agent in combination)/(MIC of tested agent alone)].

In test [6] the test system is E. coli 82 TR(pl 81), transformant carrying blaKPC-3. Put plainly: whole cell assay, meropenem MIC with tested agent. The following applies: for MIC: Escherichia coli, read-out: MIC of agent alone. Type of test: cell-based, Escherichia coli. The procedure:
as §2

Where [7] appears, read: Escherichia coli; read-out: MIC of agent alone.

≈ marks a conversion by molar mass, not a printed value. Where “and” joins values, the source holds several entries; their conditions need not be identical. Equal values may be shown once. Read-outs that look alike come from different tables or passages of the source.

KPC-3 in purified protein extract from E. coli 82 TR(pl 81), sequence (Q9F663 25-293 H272Y): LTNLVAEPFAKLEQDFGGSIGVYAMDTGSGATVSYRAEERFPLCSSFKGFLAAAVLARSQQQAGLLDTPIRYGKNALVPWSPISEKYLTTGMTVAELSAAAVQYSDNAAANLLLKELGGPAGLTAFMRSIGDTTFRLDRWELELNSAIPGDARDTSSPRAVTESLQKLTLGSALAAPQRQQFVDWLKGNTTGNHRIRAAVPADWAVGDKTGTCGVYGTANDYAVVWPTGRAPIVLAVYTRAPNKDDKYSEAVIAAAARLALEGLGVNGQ

Broadly, the MIC is the smallest concentration in the dilution series that meets the test's criterion for growth inhibition. In the case of `OB(O)c1cc(Br)c(B(O)O)cc1Br` [1i], the MIC in test [1] was 50 to 400 µg/mL (≈ 155 to 1240 µM).

As to `O=Cc1cc(F)ccc1B(O)O` [7b], the MIC in test [1] fell in the range of 50 to 400 µg/mL (≈ 298 to 2380 µM); in test [2] (enterococci), 100 to 400 µg/mL (≈ 595 to 2380 µM); in test [2] (staphylococci), 12.5 to 50 µg/mL (≈ 74.4 to 298 µM). For the same molecule, in test [3], the “reduction of MIC in the presence of PAβN” value was 4–16 fold.

Regarding `OB(O)c1ccc(C(F)(F)F)cc1B(O)O` [3e], the “reduction of MIC in the presence of PAβN” value in test [3] is 4–16 fold.

`OB(O)c1ccc(B(O)O)cc1` [1a]: the “Relative absorbance (nitrocefin hydrolysis, 486 nm)” value (shortened to “Relative absorbance”) in test [4] (agent 4 mg/L) was 1.348 and 1.320 and 1.308; in test [4] (agent 8 mg/L), 1.214 and 1.079 and 1.201; in test [4] (agent 16 mg/L) it was 0.998 and 1.066 and 1.076. The MIC in test [5] (setting [7]) and in test [6] was > 400 µg/mL throughout. Also, the “MIC of meropenem in combination with agent” value (“MIC of meropenem” below) in test [5] (agent 16 mg/L) was determined as 0.016 µg/mL; in test [6] (agent 4 mg/L), 0.50 µg/mL; in test [6] (agent 8 mg/L), 0.25 µg/mL; in test [6] (agent 16 mg/L), 0.125 µg/mL.

As to `OB(O)c1cccc(B(O)O)c1` [2a], the “Relative absorbance” value in test [4] (agent 4 mg/L) was 1.605 and 1.649 and 1.595; in test [4] (agent 8 mg/L), 1.520 and 1.499 and 1.528; in test [4] (agent 16 mg/L) it was 1.377 and 1.274 and 1.280. In addition, the MIC in test [5] (setting [7]) and in test [6] was > 400 µg/mL each time. The “MIC of meropenem” value was 0.016 µg/mL in test [5] (agent 16 mg/L), 1 µg/mL in test [6] (agent 4 mg/L), 1 µg/mL in test [6] (agent 8 mg/L) and 1 µg/mL in test [6] (agent 16 mg/L). Also, the “meropenem MIC reduction” value in test [6] (agent 4, 8 and 16 mg/L) came out at 2 fold.

On to `OB(O)c1ccccc1B(O)O` [3a, phenylene-1,2-diboronic acid], for which the MIC was 50 to 400 µg/mL (≈ 302 to 2410 µM) in test [1] and 400 µg/mL in test [5] (setting [7]). In addition, the “Relative absorbance” value in test [4] (agent 4 mg/L) is 1.451 and 1.436 and 1.174; in test [4] (agent 8 mg/L), 1.305 and 1.279 and 1.249; in test [4] (agent 16 mg/L), 1.090 and 1.114 and 1.077. The “MIC of meropenem” value in test [5] (agent 16 mg/L) was found to be 0.016 µg/mL; in test [6] (agent 4 mg/L), 0.50 µg/mL; in test [6] (agent 8 mg/L), 0.125 µg/mL; in test [6] (agent 16 mg/L), 0.062 µg/mL. Besides, the “meropenem MIC reduction” value in test [6] (agent 4 mg/L) was 4 fold; in test [6] (agent 8 mg/L), 16 fold; in test [6] (agent 16 mg/L), 32 fold.

For `OB(O)c1cc(C(F)(F)F)cc(B(O)O)c1F` [2e], the MIC in test [2] (enterococci) lay in the range of 50 to 100 µg/mL (≈ 199 to 397 µM); in test [2] (staphylococci) it was 0.78 to 12.5 µg/mL (≈ 3.1 to 49.7 µM). The “reduction of MIC in the presence of PAβN” value in test [3] is given as 4–16 fold.

With `OB(O)c1cc(F)c(B(O)O)cc1F` [1e], the results for the MIC in test [2] (enterococci) and in test [2] (staphylococci) were 100 to 400 µg/mL (≈ 496 to 1980 µM) and 12.5 to 50 µg/mL (≈ 62 to 248 µM), respectively.

On to `OB(O)c1ccccc1` [PBA, phenylboronic acid, reference compound], for which the “Relative absorbance” value in test [4] (agent 4 mg/L) was 1.093 and 1.087 and 1.232; in test [4] (agent 8 mg/L) it was 1.183 and 1.165 and 1.117; in test [4] (agent 16 mg/L), 0.975 and 0.933 and 0.957. The MIC in test [5] (Escherichia coli, read-out: MIC of agent alone) is > 400 µg/mL; in test [6], > 400 µg/mL. Also, the “MIC of meropenem” value in test [5] (agent 16 mg/L) is 0.016 µg/mL; in test [6] (agent 4 mg/L) it was 0.50 µg/mL; in test [6] (agent 8 mg/L) it was 0.25 µg/mL; in test [6] (agent 16 mg/L), 0.25 µg/mL.

In test [1], `OB(O)c1cc(F)ccc1F` [7a, 2,5-difluorophenylboronic acid] came in with an MIC of 50 to 400 µg/mL (≈ 317 to 2530 µM).

`OB(O)c1ccc(B(O)O)c(F)c1F` [1c]: the MIC in test [2] (enterococci) lay within 100 to 400 µg/mL (≈ 496 to 1980 µM); in test [2] (staphylococci) it was 12.5 to 50 µg/mL (≈ 62 to 248 µM).

Consider `OB(O)c1ccccc1S` [7c, 2-mercaptophenylboronic acid], for which the MIC in test [2] (all tested coccis) was 12.5 to 25 µg/mL (≈ 81.2 to 162 µM).
